In patent US6162806A, “Active oxygen scavengers containing pterin derivatives” (Artemis, Inc., priority 1996, dated 2000):

Assays:
[1] = literature; cited from earlier work
rats = experiment: Acute toxicity, intravenous; format: in vivo, rat; details: 6 mg/kg intravenously; 10 rats; observed for 3 months
Description: Acute toxicity of 6-formyl-pterin was examined, using rats.

[2] = Active oxygen scavenging activity, active oxygen derived from potassium superoxide in DMSO (electron spin resonance spectroscopy); details: ESR at 77K, vs no addition
Method: Potassium superoxide (KO2) (28 mg) was added to dimethyl sulfoxide (DMSO) (20 ml) to prepare a saturated solution so that active oxygens were generated in DMSO. As a standard substance, 2,2,6,6-tetramethylpiperidine-N-oxide (TEMPO) was used. TEMPO was dissolved in DMSO in the concentrations of 0.1, 0.3, 0.5, 0.7, 1, 1.2, or 1.5 mM. The electron spin resonance signals obtained (measured at 77K) were integrated to prepare a standard curve.

[3] = system: active oxygens generated by PMA-stimulated polymorphonuclear leukocytes (PMN); experiment: Active oxygen scavenging activity, PMN-PMA system (CLA chemiluminescence); format: cell-based, human (healthy adult); details: 37° C., approximately 10 minutes
Method: Venous blood (10 ml) was taken from a healthy adult, and polymorphonuclear leukocytes (abbreviated to PMN) were isolated therefrom. The leukocytes were suspended in HBSS (Hanks' balanced salt solution) to approximately 1×10^6 cells/ml. 2-Methyl-6-phenyl-3,7-dihydroimidazo-(1,2-a)-pyrazin-3-on (hereinafter referred to as CLA) as a chemiluminescent compound, that is, a compound which may generate chemiluminescence due to the presence of active oxygens, was dissolved in a phosphate buffered saline (hereinafter referred to as PBS) to the concentration of 50 μM. Phorbol myristate acetate (abbreviated to PMA) as a polymorphonuclear leukocyte stimulating agent, that is, a compound which may generate active oxygens by stimulating polymorphonuclear leukocytes, was dissolved in PBS to the concentration of 20 μg/ml. The PMN suspension, the CLA solution, and the PMA solution were cooled with ice for storage until use for measurement.
6-Formyl-pterin as the active ingredient of the active oxygen scavenger according to the present invention was dissolved in PBS to the concentrations of 100 μM, 250 μM, or 500 μM, and then warmed to 37° C. before measurement. PBS as a control was also warmed to 37° C. before measurement.
To polymorphonuclear leukocytes isolated from 2 ml of the PMN suspension by centrifugation, the 6-formyl-pterin solutions of various concentrations or PBS were added to adjust total volume to 1930 μl. The mixtures were poured into test tubes and warmed at 37° C. for 15 minutes. After adding the CLA solution (50 μl), the mixture was placed in a chemiluminescence reader and the measurement of an amount of chemiluminescence was started. After 1 minute from the beginning of the measurement, the PMA solution (20 μl) was injected into the test tube with a syringe. The measurement was performed at 37° C. for approximately 10 minutes while monitoring every 10 seconds.
FIG. 1 is a graph showing a total chemiluminescence amount obtained by accumulating chemiluminescence amounts measured every 10 seconds.

[4] = system: delayed neuronal death (DND) in the cerebral hippocampus area; experiment: Suppression of delayed neuronal death in transient cerebral ischemia model gerbils (MAP2 staining of hippocampus); format: in vivo, gerbil; details: 50 mM in physiological saline (1 ml) intraperitoneally 30 minutes after resumption of bloodstream, after 1 week
Method: A neck of each gerbil (body weigh=approximately 80 g) under a general anesthesia was incised. Ambilateral carotids were visually ligated with clips to cut off a bloodstream. After 5 minutes, the bloodstream was resumed, and the incision was sutured. After 30 minutes from the resumption of the bloodstream, physiological saline (1 ml) was intraperitoneally administered to a control group of the gerbils, whereas 50 mM of 6-formyl-pterin in physiological saline (1 ml) was intraperitoneally administered to an administering group of the gerbils. Thereafter, gerbils came out from anesthesia and then were bred for 1 week. Then, a brain was extirpated from each gerbil under a general anesthesia. Tissue slices were prepared from the brain and stained with microtubule-associated protein 2 (MAP2) which can specifically stain neurons, to evaluate the degree of delayed neuronal death (DND) in the cerebral hippocampus area.
FIG. 3 is a photomicrograph of a slice of a cerebral hippocampus tissue from a completely normal gerbil which had not encountered hemostasis, FIG. 4 is a photomicrograph of a slice of a cerebral hippocampus tissue from the control group, and FIG. 5 is a photomicrograph of a slice of a cerebral hippocampus tissue from the 6-formyl-pterin-administering group. […]

[5] = background art; cited from earlier work

SMILES | antioxidative activity against active oxygens [1] | death (acute toxicity) (rats) | amount of active oxygens generated from KO2 ([2]; 1 mM 6-formyl-pterin) | amount of active oxygens generated from KO2 ([2]; from 0.1 mM 6-formyl-pterin) | amount of chemiluminescence, i.e., the amount of active oxygens ([3]; 100 μM, vs PBS control (FIG. 1, curve b)) | amount of chemiluminescence, i.e., the amount of active oxygens ([3]; 250 μM, vs PBS control (FIG. 1, curve c)) | amount of chemiluminescence, i.e., the amount of active oxygens ([3]; 500 μM, vs PBS control (FIG. 1, curve d)) | delayed neuronal death [4] | state of neurons in cerebral hippocampus tissue slice (FIG. 5) ([4]; control: neurons completely dropped) | teratogenicity [5]
Nc1nc2ncc([C@H](O)[C@H](O)CO)nc2c(=O)[nH]1 [NP, 2-amino-4-oxo-6-(D-erythro-1',2',3'-trihydroxypropyl)-pteridine] | antioxidative activity against active oxygens | – | – | – | – | – | – | – | – | –
Nc1nc2ncc(C=O)nc2c(=O)[nH]1 [6-formyl-pterin] | – | No death was observed | almost disappeared | lowered | significantly suppressed | almost disappeared | almost disappeared | suppressed | many neurons were living | –
Nc1nc2c(c(=O)[nH]1)NC([C@H](O)[C@H](O)CO)CN2 (some centres unmarked) [NPH4, 5,6,7,8-tetrahydroneopterin] | potent antioxidative activity | – | – | – | – | – | – | – | – | exhibits teratogenicity
